Values quoted from earlier work, collected in article PMC2970821 (Clinical Proteomics, 2010).
Ends that are not written are not given here.

Settings: apparently generating ITIH4-25, ref [26]

For RPGVLSSRQLGLPGPPDVPDHAAYHPF [ITIH4-27], the “Susceptibility to degradation of the synthetic peptide in plasma and serum” value is given as “highest susceptibility to degradation”.
